Results taken from patent US4594329A, “CRF analogs” (The Salk Institute for Biological Studies, priority 1984, dated 1986).
Square brackets hold non-standard residues; d marks the D form. Peptide text beside a SMILES is read from it. * marks the point of attachment. hArg = N=C(N)NCCCC[C@H](N)C(=O)O; Nle = CCCC[C@H](N)C(=O)O; Orn = NCCC[C@H](N)C(=O)O; Bz = O=C(c1ccccc1)*

Columns and labels:
[1] = system: cultured rat pituitary cells; experiment: secretion of ACTH and β-endorphin by cultured rat pituitary cells; format: cell-based; conditions: for stimulates the secretion of ACTH and β-END-LI / secretion of ACTH and β-END-LI, amount relative to oCRF: general procedure of Example III; for secretion of ACTH and β-END-LI, amount relative to oCRF: % of oCRF
Experimental: (§1) The synthetic peptide AHC and oCRF were examined for their effects on the secretion of ACTH and β-endorphin in vitro and was also in vivo. The potency of synthetic oCRF to stimulate the secretion of ACTH and β-endorphin by cultured rat pituitary cells was measured using the procedure as generally set forth in Endocrinology, 91, 562 (1972). […] In vivo testing is carried out using the general procedure set forth in C. Rivier et al., Science, 218, 377 (1982).

[2] = lowering of blood pressure, in vivo testing; conditions: general procedure of Example III
Experimental: as §1

Row | SMILES | stimulates the secretion of ACTH and β-END-LI [1] | lowering of blood pressure [2] | secretion of ACTH and β-END-LI, amount relative to oCRF [1] | secretion of ACTH and β-END-LI compared with oCRF ([1]; comparison with oCRF)
1 | CCCC[C@H](NC(=O)[C@@H](NC(=O)[C@H](CC(C)C)NC(=O)[C@H](CC(=O)O)NC(=O)[C@H](CC(C)C)NC(=O)[C@H](CO)NC(=O)[C@@H](NC(=O)[C@@H]1CCCN1C(=O)[C@@H]1CCCN1C(=O)[C@H](CCC(=O)O)NC(=O)CNC(=O)c1ccccc1)[C@@H](C)CC)[C@@H](C)O)C(=O)N[C@@H](Cc1c[nH]cn1)C(=O)N[C@@H](CC(C)C)C(=O)N[C@@H](CC(C)C)C(=O)N[C@@H](CCCNC(=N)N)C(=O)N[C@@H](CCC(=O)O)C(=O)N[C@H](C(=O)N[C@@H](CC(C)C)C(=O)N[C@@H](CCC(=O)O)C(=O)N[C@@H](CCSC)C(=O)N[C@@H](C)C(=O)N[C@@H](CCCNC(=N)N)C(=O)N[C@@H](C)C(=O)N[C@@H](CCC(=O)O)C(=O)N[C@@H](CCC(N)=O)C(=O)N[C@@H](CC(C)C)C(=O)N[C@@H](C)C(=O)N[C@@H](CCC(=O)O)C(=O)N[C@@H](CCC(N)=O)C(=O)N[C@@H](C)C(=O)N[C@@H](Cc1c[nH]cn1)C(=O)N[C@@H](CO)C(=O)N[C@@H](CC(N)=O)C(=O)N[C@@H](CCCNC(=N)N)C(=O)N[C@@H](CCCNC(=N)N)C(=O)N[C@@H](CC(C)C)C(=O)N[C@@H](CCSC)C(=O)N[C@@H](CCC(=O)O)C(=O)N[C@H](C(=O)N[C@H](C(N)=O)[C@@H](C)CC)[C@@H](C)CC)C(C)C (Bz-GEPPISLDLT[Nle]HLLREVLEMARAEQLAEQAHSNRRLMEII-NH2) | stimulates the secretion of ACTH and β-END-LI | very significant lowering of blood pressure | – | –
2 | CC[C@H](C)[C@H](NC(=O)[C@@H]1CCCN1C(=O)[C@@H]1CCCN1)C(=O)N[C@@H](CO)C(=O)N[C@@H](CC(C)C)C(=O)N[C@@H](CC(=O)O)C(=O)N[C@@H](CC(C)C)C(=O)N[C@H](C(=O)N[C@@H](CC(C)C)C(=O)N[C@@H](Cc1c[nH]cn1)C(=O)N[C@@H](CC(C)C)C(=O)N[C@@H](CC(C)C)C(=O)N[C@@H](CCCNC(=N)N)C(=O)N[C@@H](CCC(=O)O)C(=O)N[C@@H](CCSC)C(=O)N[C@@H](CC(C)C)C(=O)N[C@@H](CCC(=O)O)C(=O)N[C@@H](CCSC)C(=O)N[C@@H](CCC(=O)O)C(=O)N[C@@H](CCCN)C(=O)N[C@@H](C)C(=O)N[C@@H](CCC(=O)O)C(=O)N[C@@H](CCC(N)=O)C(=O)N[C@@H](CCC(=O)O)C(=O)N[C@@H](C)C(=O)N[C@@H](CCC(=O)O)C(=O)N[C@@H](CCC(N)=O)C(=O)N[C@@H](C)C(=O)N[C@@H](C)C(=O)N[C@@H](CC(C)C)C(=O)N[C@@H](CC(N)=O)C(=O)N[C@@H](CCCNC(=N)N)C(=O)N[C@@H](CCCCNC(=N)N)C(=O)N[C@@H](CC(C)C)C(=O)N[C@@H](CC(C)C)C(=O)N[C@@H](CCC(=O)O)C(=O)N[C@@H](CCC(=O)O)C(=O)N[C@@H](C)C(N)=O)[C@@H](C)O (H-PPISLDLTLHLLREMLEME[Orn]AEQEAEQAALNR[hArg]LLEEA-NH2) | stimulates the secretion of ACTH and β-END-LI | very significant lowering of bloood pressure | – | –
3 | CCCC[C@H](NC(=O)[C@H](CCC(=O)O)NC(=O)[C@H](CC(C)C)NC(=O)[C@H](CCCC)NC(=O)[C@H](CCC(=O)O)NC(=O)[C@H](CCCNC(=N)N)NC(=O)[C@H](CC(C)C)NC(=O)[C@H](CC(C)C)NC(=O)[C@H](Cc1c[nH]cn1)NC(=O)[C@H](Cc1ccccc1)NC(=O)[C@@H](NC(=O)[C@H](CC(C)C)NC(=O)[C@H](CC(=O)O)NC(=O)[C@H](CC(C)C)NC(=O)[C@H](CO)NC(=O)[C@@H](NC(=O)[C@@H]1CCCN1C(=O)[C@H]1CCCN1)[C@@H](C)CC)[C@@H](C)O)C(=O)N[C@@H](C)C(=O)N[C@@H](CCCCN)C(=O)N[C@@H](C)C(=O)N[C@@H](CCC(=O)O)C(=O)N[C@@H](CCC(N)=O)C(=O)N[C@@H](CCC(=O)O)C(=O)N[C@@H](C)C(=O)N[C@@H](CCC(=O)O)C(=O)N[C@@H](CCC(N)=O)C(=O)N[C@@H](C)C(=O)N[C@@H](C)C(=O)N[C@@H](CC(C)C)C(=O)N[C@@H](CC(N)=O)C(=O)N[C@@H](CCCNC(=N)N)C(=O)N[C@@H](CC(C)C)C(=O)N[C@@H](CC(C)C)C(=O)N[C@@H](CC(C)C)C(=O)N[C@@H](CCC(=O)O)C(=O)N[C@@H](CCC(=O)O)C(=O)N[C@@H](C)C(N)=O [[D-Pro^4, Nle^18,21]-AHC(4-41)] (H-[dP]PISLDLTFHLLRE[Nle]LE[Nle]AKAEQEAEQAALNRLLLEEA-NH2) | – | very significant lowering of blood pressure | about 160% | –
4 | CC[C@H](C)[C@H](NC(=O)[C@H](CC(=O)O)NC(=O)[C@H](CC(C)C)NC(=O)[C@H](CC(C)C)NC(=O)[C@H](CCCCN)NC(=O)[C@H](CCCNC(=N)N)NC(=O)[C@H](CC(N)=O)NC(=O)[C@H](CO)NC(=O)[C@H](Cc1c[nH]cn1)NC(=O)[C@H](C)NC(=O)[C@H](CCC(N)=O)NC(=O)[C@H](CCC(N)=O)NC(=O)[C@H](C)NC(=O)[C@H](CC(C)C)NC(=O)[C@H](CCC(N)=O)NC(=O)[C@H](CC(=O)O)NC(=O)[C@H](C)NC(=O)[C@H](CCCCN)NC(=O)[C@H](CC(=O)O)NC(=O)[C@H](CCSC)NC(=O)[C@H](CCC(=O)O)NC(=O)[C@H](CC(C)C)NC(=O)[C@@H](NC(=O)[C@H](CCC(=O)O)NC(=O)[C@H](CCCNC(=N)N)NC(=O)[C@H](CC(C)C)NC(=O)[C@H](CC(C)C)NC(=O)[C@H](Cc1c[nH]cn1)NC(=O)[C@H](Cc1ccccc1)NC(=O)[C@@H](NC(=O)[C@H](CC(C)C)NC(=O)[C@H](CC(=O)O)NC(=O)[C@H](CC(C)C)NC(=O)[C@H](CO)NC(=O)[C@@H](NC(=O)[C@H]1CCCN1)[C@@H](C)CC)[C@@H](C)O)C(C)C)C(=O)N[C@@H](C)C(N)=O [[D-Pro^4,Asp^22]-oCRF(4-41)] (H-[dP]ISLDLTFHLLREVLEMDKADQLAQQAHSNRKLLDIA-NH2) | stimulates the secretion of ACTH and β-END-LI | very significant lowering of blood pressure | – | –
5 | CCCC[C@H](NC(=O)[C@H](CCC(=O)O)NC(=O)[C@H](CC(C)C)NC(=O)[C@@H](NC(=O)[C@H](CCC(=O)O)NC(=O)[C@H](CCCNC(=N)N)NC(=O)[C@H](CC(C)C)NC(=O)[C@H](CC(C)C)NC(=O)[C@H](Cc1c[nH]cn1)NC(=O)[C@H](Cc1ccccc1)NC(=O)[C@@H](NC(=O)[C@H](CC(C)C)NC(=O)[C@H](CC(=O)O)NC(=O)[C@H](CC(C)C)NC(=O)[C@H](CO)NC(=O)[C@@H](NC(=O)[C@@H]1CCCN1C(=O)[C@H]1CCCN1)[C@@H](C)CC)[C@@H](C)O)C(C)C)C(=O)N[C@@H](C)C(=O)N[C@@H](CCCNC(=N)N)C(=O)N[C@@H](C)C(=O)N[C@@H](CCC(=O)O)C(=O)N[C@@H](CCC(N)=O)C(=O)N[C@@H](CC(C)C)C(=O)N[C@@H](C)C(=O)N[C@@H](CCC(N)=O)C(=O)N[C@@H](CCC(N)=O)C(=O)N[C@@H](C)C(=O)N[C@@H](Cc1c[nH]cn1)C(=O)N[C@@H](CO)C(=O)N[C@@H](CC(N)=O)C(=O)N[C@@H](CCCNC(=N)N)C(=O)N[C@@H](CCCCN)C(=O)N[C@@H](CC(C)C)C(=O)N[C@@H](CCSC)C(=O)N[C@@H](CCC(=O)O)C(=O)N[C@H](C(=O)N[C@H](C(N)=O)[C@@H](C)CC)[C@@H](C)CC [[D-Pro^4,Nle^21,38]-rCRF(4-41)] (H-[dP]PISLDLTFHLLREVLE[Nle]ARAEQLAQQAHSNRKLMEII-NH2) | – | very significant lowering of blood pressure | – | in an amount greater than oCRF
6 | CCCC[C@H](NC(=O)[C@H](CCC(=O)O)NC(=O)[C@H](CC(C)C)NC(=O)[C@H](CCCC)NC(=O)[C@H](CCC(=O)O)NC(=O)[C@H](CCCNC(=N)N)NC(=O)[C@H](CC(C)C)NC(=O)[C@H](CC(C)C)NC(=O)[C@H](Cc1c[nH]cn1)NC(=O)[C@H](Cc1ccccc1)NC(=O)[C@@H](NC(=O)[C@H](CC(C)C)NC(=O)[C@H](CC(=O)O)NC(=O)[C@H](CC(C)C)NC(=O)[C@H](CO)NC(=O)[C@@H](NC(=O)[C@@H]1CCCN1C(=O)[C@H]1CCCN1C(=O)[C@H](N)Cc1ccc(O)cc1)[C@@H](C)CC)[C@@H](C)O)C(=O)N[C@@H](C)C(=O)N[C@@H](CCCCN)C(=O)N[C@@H](C)C(=O)N[C@@H](CCC(=O)O)C(=O)N[C@@H](CCC(N)=O)C(=O)N[C@@H](CCC(=O)O)C(=O)N[C@@H](C)C(=O)N[C@@H](CCC(=O)O)C(=O)N[C@@H](CCC(N)=O)C(=O)N[C@@H](C)C(=O)N[C@@H](C)C(=O)N[C@@H](CC(C)C)C(=O)N[C@@H](CC(N)=O)C(=O)N[C@@H](CCCNC(=N)N)C(=O)N[C@@H](CC(C)C)C(=O)N[C@@H](CC(C)C)C(=O)N[C@@H](CC(C)C)C(=O)N[C@@H](CCC(=O)O)C(=O)N[C@@H](CCC(=O)O)C(=O)N[C@@H](C)C(N)=O [[D-Tyr^3, D-Pro^4, Nle^18,21]-AHC(3-41)] (H-[dY][dP]PISLDLTFHLLRE[Nle]LE[Nle]AKAEQEAEQAALNRLLLEEA-NH2) | – | very significant lowering of blood pressure | about 470% | –
